Test results published in publication PMC11589570, “Critical assessment of LC3/GABARAP ligands used for degrader development and ligandability of LC3/GABARAP binding pockets” (Nature Communications, 2024).
“And” between values parts separate entries of the source, which are not always exact repeats. Identical values can stand only once.

Experiments:
LC3A = LC3A (Homo sapiens, UniProt Q9H492); experiment: FP assay with Cy5-labelled p62 LIR tracer (protein titration and tracer displacement); assay type: binding; conditions: two replicate columns per compound
GABARAP = GABARAP (Homo sapiens, UniProt O95166); experiment: as above; assay type: binding; conditions: two replicate columns per compound
Chain of GABARAP (O95166 1-116): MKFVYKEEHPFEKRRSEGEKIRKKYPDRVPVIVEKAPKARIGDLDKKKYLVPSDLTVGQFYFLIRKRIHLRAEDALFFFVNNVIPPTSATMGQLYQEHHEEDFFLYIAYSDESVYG

LC3C = LC3C (Homo sapiens, UniProt Q9BXW4); experiment: as above; assay type: binding; conditions: two replicate columns per compound
Chain of LC3C (Q9BXW4 1-126): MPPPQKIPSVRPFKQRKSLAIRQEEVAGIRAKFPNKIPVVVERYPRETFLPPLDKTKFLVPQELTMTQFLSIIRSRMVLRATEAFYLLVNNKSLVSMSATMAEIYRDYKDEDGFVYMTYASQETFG

LC3B = LC3B (Homo sapiens, UniProt Q9GZQ8); experiment: as above; assay type: binding; conditions: for normalized FP signal, p62 LIR tracer displacement: LC3B; for compound titration LC3B (displacement curve, FP signal): two replicate columns per compound
all LC3/GABARAPs = experiment: Covalent compound screening by ESI LC-MS; conditions: 50 µM protein, 100 µM compound, 90 min
GABARAPL1 = GABARAPL1 (Homo sapiens, UniProt Q9H0R8); experiment: FP assay with Cy5-labelled p62 LIR tracer (protein titration and tracer displacement); assay type: binding; conditions: for compound titration GABARAPL1 (displacement curve, FP signal): two replicate columns per compound; for FP tracer displacement curve signal (compound titration): duplicate values, listed as Cov2
Chain of GABARAPL1 (Q9H0R8 whole entry): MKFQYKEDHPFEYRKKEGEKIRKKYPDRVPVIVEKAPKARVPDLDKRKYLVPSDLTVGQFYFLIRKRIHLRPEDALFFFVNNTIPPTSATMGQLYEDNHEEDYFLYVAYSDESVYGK

[1] = log10 concentration [M] -3.82391
[2] = log10 concentration [M] -4.1549
[3] = log10 concentration [M] -4.60206
[4] = log10 concentration [M] -5.30103
[5] = log10 concentration [M] -5.69897
[6] = log10 concentration [M] -6.22185
[7] = log10 concentration [M] -6.69897
[8] = log10 concentration [M] -7.30103
[9] = log10 concentration [M] -7.79588
[10] = log10 concentration [M] -8.08092

## CC(=O)N1CCN(CCNC=C2C(=O)CC(c3ccc(Cl)cc3)CC2=O)CC1 (stereo not drawn) [compound 6]
LC3A; [1]
  compound titration LC3A (displacement curve, FP signal): 92.8947 and 97.3684
LC3A; [2]
  compound titration LC3A (displacement curve, FP signal): 97.1053 and 102.368
LC3A; [3]
  compound titration LC3A (displacement curve, FP signal): 99.7368 and 100.789
LC3A; log10 concentration [M] -5
  compound titration LC3A (displacement curve, FP signal): 103.421 and 103.947
LC3A; [4]
  compound titration LC3A (displacement curve, FP signal): 103.421 and 100.789
LC3A; [5]
  compound titration LC3A (displacement curve, FP signal): 99.7368 and 96.0526
LC3A; [6]
  compound titration LC3A (displacement curve, FP signal): 101.316 and 102.105
LC3A; [7]
  compound titration LC3A (displacement curve, FP signal): 103.947 and 107.368
LC3A; [8]
  compound titration LC3A (displacement curve, FP signal): 104.211 and 101.579
LC3A; [9]
  compound titration LC3A (displacement curve, FP signal): 104.211 and 98.6842
LC3A; [10]
  compound titration LC3A (displacement curve, FP signal): 104.211 and 93.9474
GABARAP; [1]
  compound titration GABARAP (displacement curve, FP signal): 90.8621 and 84.1379
GABARAP; [2]
  compound titration GABARAP (displacement curve, FP signal): 94.8276 and 93.7931
GABARAP; [3]
  compound titration GABARAP (displacement curve, FP signal): 93.1034 and 98.2759
GABARAP; log10 concentration [M] -5
  compound titration GABARAP (displacement curve, FP signal): 100.69 and 98.6207
GABARAP; [4]
  compound titration GABARAP (displacement curve, FP signal): 97.5862 and 99.4828
GABARAP; [5]
  compound titration GABARAP (displacement curve, FP signal): 92.2414 and 94.1379
GABARAP; [6]
  compound titration GABARAP (displacement curve, FP signal): 97.4138 and 95.5172
GABARAP; [7]
  compound titration GABARAP (displacement curve, FP signal): 98.1034 and 97.7586
GABARAP; [8]
  compound titration GABARAP (displacement curve, FP signal): 98.9655 and 102.759
GABARAP; [9]
  compound titration GABARAP (displacement curve, FP signal): 95.6897 and 95
GABARAP; [10]
  compound titration GABARAP (displacement curve, FP signal): 97.069 and 98.9655
LC3C; [1]
  compound titration LC3C (displacement curve, FP signal): 87.8 and 86.8
LC3C; [2]
  compound titration LC3C (displacement curve, FP signal): 94.6 and 92
LC3C; [3]
  compound titration LC3C (displacement curve, FP signal): 98.2 and 98.8
LC3C; log10 concentration [M] -5
  compound titration LC3C (displacement curve, FP signal): 94.6 and 102.4
LC3C; [4]
  compound titration LC3C (displacement curve, FP signal): 93.4 and 98.8
LC3C; [5]
  compound titration LC3C (displacement curve, FP signal): 90 and 93.6
LC3C; [6]
  compound titration LC3C (displacement curve, FP signal): 93.6 and 98.6
LC3C; [7]
  compound titration LC3C (displacement curve, FP signal): 97.6 and 98.8
LC3C; [8]
  compound titration LC3C (displacement curve, FP signal): 101.6 and 101.4
LC3C; [9]
  compound titration LC3C (displacement curve, FP signal): 90.4 and 95.6
LC3C; [10]
  compound titration LC3C (displacement curve, FP signal): 99.2 and 98
LC3B; [1]
  normalized FP signal, p62 LIR tracer displacement: 71.5789 and 68.1579
  compound titration LC3B (displacement curve, FP signal): 71.5789 and 68.1579
LC3B; [2]
  normalized FP signal, p62 LIR tracer displacement: 85 and 83.6842
  compound titration LC3B (displacement curve, FP signal): 85 and 83.6842
LC3B; [3]
  normalized FP signal, p62 LIR tracer displacement: 92.8947 and 95.7895
  compound titration LC3B (displacement curve, FP signal): 92.8947 and 95.7895
LC3B; log10 concentration [M] -5
  normalized FP signal, p62 LIR tracer displacement: 95.7895 and 97.3684
  compound titration LC3B (displacement curve, FP signal): 95.7895 and 97.3684
LC3B; [4]
  normalized FP signal, p62 LIR tracer displacement: 97.6316 and 99.7368
  compound titration LC3B (displacement curve, FP signal): 97.6316 and 99.7368
LC3B; [5]
  normalized FP signal, p62 LIR tracer displacement: 96.0526 and 102.368
  compound titration LC3B (displacement curve, FP signal): 96.0526 and 102.368
LC3B; [6]
  normalized FP signal, p62 LIR tracer displacement: 95 and 100.789
  compound titration LC3B (displacement curve, FP signal): 95 and 100.789
LC3B; [7]
  normalized FP signal, p62 LIR tracer displacement: 99.2105 and 96.8421
  compound titration LC3B (displacement curve, FP signal): 99.2105 and 96.8421
LC3B; [8]
  normalized FP signal, p62 LIR tracer displacement: 99.7368 and 100.263
  compound titration LC3B (displacement curve, FP signal): 99.7368 and 100.263
LC3B; [9]
  normalized FP signal, p62 LIR tracer displacement: 97.6316 and 101.579
  compound titration LC3B (displacement curve, FP signal): 97.6316 and 101.579
LC3B; [10]
  normalized FP signal, p62 LIR tracer displacement: 95.2632 and 105.263
  compound titration LC3B (displacement curve, FP signal): 95.2632 and 105.263
All LC3/GABARAPs
  covalent labelling (mass shift, ESI MS): successfully labelled
GABARAPL1; [1]
  compound titration GABARAPL1 (displacement curve, FP signal): 89 and 90.4286
GABARAPL1; [2]
  compound titration GABARAPL1 (displacement curve, FP signal): 94.7143 and 97.7143
GABARAPL1; [3]
  compound titration GABARAPL1 (displacement curve, FP signal): 98.2857 and 100.143
GABARAPL1; log10 concentration [M] -5
  compound titration GABARAPL1 (displacement curve, FP signal): 102.429 and 101.571
GABARAPL1; [5]
  FP tracer displacement curve signal (compound titration): 94.4286 and 98.2857
GABARAPL1; [6]
  FP tracer displacement curve signal (compound titration): 101.857 and 101.143
GABARAPL1; [7]
  FP tracer displacement curve signal (compound titration): 102.714 and 104.571
GABARAPL1; [8]
  FP tracer displacement curve signal (compound titration): 102.571 and 101.857
GABARAPL1; [9]
  FP tracer displacement curve signal (compound titration): 99.8571 and 100.429
GABARAPL1; [10]
  FP tracer displacement curve signal (compound titration): 102.571 and 101
